A word on the inhibition: it is the drop in the measured response relative to a control, in per cent. In general, IC50 refers to the concentration that inhibits the measured activity by half.

The source of these data is US20090312316A1, “NOVEL COMPOUNDS” (priority 2006, published 2009).

Converted amounts (≈) assume the structure as drawn.

Assay [1] deals with panel of 12 human tumour cell lines. The assay can be described thus: monolayer proliferation assay (modified propidium iodide assay) in a panel of 12 human tumour cell lines. It is filed as cell-based. Here is the method: In vitro evaluation of compounds for anticancer activity in a panel of 12 human tumour cell lines in a monolayer proliferation assay was carried out at the Oncotest Testing Facility, Institute for Experimental Oncology, Oncotest GmbH, Freiburg.
The Oncotest cell lines were established from human tumor xenografts as described by Roth et al., (1999). The origin of the donor xenografts was described by Fiebig et al., (1999). Other cell lines were either obtained from the NCI (H460, SF-268, OVCAR-3, DU145, MDA-MB-231, MDA-MB-468) or purchased from DSMZ, Braunschweig, Germany (LNCAP).
All cell lines, unless otherwise specified, were grown at 37° C. in a humidified atmosphere (95% air, 5% CO2) in a ‘ready-mix’ medium containing RPMI 1640 medium, 10% fetal calf serum, and 0.1 mg/mL gentamicin (PAA, Cölbe, Germany).
A modified propidium iodide assay was used to assess the effects of the test compound(s) on the growth of human tumour cell lines (Dengler et al., (1995)).
Briefly, cells were harvested from exponential phase cultures by trypsinization, counted and plated in 96 well flat-bottomed microtitre plates at a cell density dependent on the cell line (5-10.000 viable cells/well). After 24 h recovery to allow the cells to resume exponential growth, 0.010 mL of culture medium (6 control wells per plate) or culture medium containing macbecin were added to the wells. Each concentration was plated in triplicate. Compounds were applied in two concentrations (0.001 mM and 0.01 mM). Following 4 days of continuous exposure, cell culture medium with or without test compound was replaced by 0.2 mL of an aqueous propidium iodide (PI) solution (7 mg/L). To measure the proportion of living cells, cells were permeabilized by freezing the plates. After thawing the plates, fluorescence was measured using the Cytofluor 4000 microplate reader (excitation 530 nm, emission 620 nm), giving a direct relationship to the total number of viable cells.
The mean growth inhibition across the 12 cell-line panel was expressed as treated/control×100 (% T/C).
In vitro evaluation of the test compounds for anticancer activity in a panel of human tumour cell lines in a monolayer proliferation assay was carried out as described in the general methods using a modified propidium iodide assay. This screen may be used as a model for the toxic effect of compounds in inhibiting general cell growth.

In another assay the test system is CAM vasculature. The assay is described as follows: Chick chorioallantoic membrane (CAM) assay of anti-angiogenic activity. It is filed as in vivo. On the procedure: Fresh fertile eggs were be incubated for 3 days in a standard egg incubator at 37° C. for 3 days. On Day 3, eggs were cracked under sterile conditions and embryos were placed into 20×100 mm plastic plates and cultivated at 37° C. in an embryo incubator with a water reservoir on the bottom shelf. Air was continuously bubbled into the water reservoir using a small pump so that the humidity in the incubator was kept constant. […] Embryos were returned to the incubator after addition of test material. Control embryos received 10 μL of vehicle alone. […] The blood vessel density was semi-quantitatively measured using an angiogenesis scoring system, in that exponential numbers 1 to 32 were used to indicate number of blood vessels present at the treatment sites on the CAM. Number 32 represented the highest density and 0 represented no angiogenesis. The percent of inhibition at each dosing site was calculated using the score recorded for that site divided by the mean score obtained from the appropriate control samples for each individual experiment. The percent of inhibition for each dose of a given compound was calculated by pooling all results obtained for that dose.

A further assay has as its system capillary tube formation. The conditions noted are these: Wakabayashi et al., 1997, cited from earlier work.
The subject of assay [2] is human umbilical vein endothelial cells (HUVEC). The conditions noted are these: cited from earlier work.
For assay [3], the system named is protein synthesis in the cultured rat cells. The note with it: cited from earlier work.
The target in assay [4] is cyclin-dependant kinase Cdc28/Cln2 (Saccharomyces cerevisiae, UniProt P00546). The conditions noted are these: Tsuchiya et al., 2001; cited from earlier work.
Assay [5] has as its system VEGF-induced angiogenesis (WiDr cells). The conditions noted are these: 1.8 mg/kg by intraperitoneal injection; Funahashi et al., 1999; cited from earlier work.
The subject of another assay is B16-BL6 melanoma cells. The conditions noted are these: same dosage (1.8 mg/kg); cited from earlier work.
In assay [6] the test system is Lewis lung adenocarcinoma. The conditions noted are these: WO 01/09113; cited from earlier work.

Chain of cyclin-dependant kinase Cdc28/Cln2 (P00546 whole entry): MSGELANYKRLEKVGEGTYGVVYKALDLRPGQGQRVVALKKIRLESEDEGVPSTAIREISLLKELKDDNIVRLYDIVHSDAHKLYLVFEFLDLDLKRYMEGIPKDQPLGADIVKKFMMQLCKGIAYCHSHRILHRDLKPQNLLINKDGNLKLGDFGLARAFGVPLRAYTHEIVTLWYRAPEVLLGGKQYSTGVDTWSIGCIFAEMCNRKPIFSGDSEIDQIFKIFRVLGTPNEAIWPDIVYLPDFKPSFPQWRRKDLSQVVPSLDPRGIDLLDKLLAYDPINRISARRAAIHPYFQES
Chain of cyclin-dependant kinase Cdc28/Cln2 (P20438 whole entry partner): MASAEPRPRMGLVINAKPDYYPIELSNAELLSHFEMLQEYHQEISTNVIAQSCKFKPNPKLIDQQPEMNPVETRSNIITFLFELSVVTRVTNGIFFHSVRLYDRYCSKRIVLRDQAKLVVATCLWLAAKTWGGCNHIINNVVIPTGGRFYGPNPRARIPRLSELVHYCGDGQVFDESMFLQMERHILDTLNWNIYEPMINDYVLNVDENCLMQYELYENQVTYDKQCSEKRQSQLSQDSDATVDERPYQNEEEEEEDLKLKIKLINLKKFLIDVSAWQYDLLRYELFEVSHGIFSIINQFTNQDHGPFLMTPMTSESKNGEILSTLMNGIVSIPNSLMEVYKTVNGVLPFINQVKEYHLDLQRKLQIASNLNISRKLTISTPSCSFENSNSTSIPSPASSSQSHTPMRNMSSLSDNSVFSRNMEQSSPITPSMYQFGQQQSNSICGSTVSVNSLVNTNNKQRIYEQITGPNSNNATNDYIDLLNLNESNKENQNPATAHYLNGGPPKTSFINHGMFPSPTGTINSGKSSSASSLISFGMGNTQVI

In the case of `C[C@@H]1C[C@H](C)C[C@H](C)[C@@H](O)CC(=O)O[C@H]([C@@H]2CCC[C@H]2C(=O)O)C/C=C/C=C(/C#N)[C@H](O)[C@@H](C)C1` [Compound 1, Borrelidin], the “Mean % T/C at 1 μM” value in assay [1] (1 μM, mean growth across 12 cell-line panel, treated/control x 100, 4 days exposure) is on record as 7 % T/C. The “Mean % T/C at 10 μM” value in assay [1] (10 μM, mean growth across 12 cell-line panel, treated/control x 100, 4 days exposure) came to 6 % T/C. The inhibition at 1 µM in assay [1] (Homo sapiens, 1 uM, 100 minus mean %T/C at 1 uM of Table III, read-out: Mean percentage Inhibition of cancer cell lines at 1 uM) is 93%. The “Mean percentage inhibition of CAM vasculature at 25 ng/CAM” value in the assay with CAM vasculature (25 ng/CAM) was 62%. In addition, the “Ratio of inhibition of CAM vasculature at 25 ng/CAM to in vitro cancer cell inhibition at 1 uM” value with CAM vasculature (25 ng/CAM versus 1 uM in cancer cell panel) was found to be 0.6. Further, the “Mean blood vessel density score” value in the assay on CAM vasculature (angiogenesis score up to 32 (highest density), 0 = no angiogenesis, mean of ten experiments) turned out to be 6.4. The “IC50 inhibition of capillary tube formation” value in the assay on capillary tube formation was 0.0004 µg/mL. In addition, the IC50 in the assay with capillary tube formation (read-out: IC50 inhibition of capillary tube formation) is 800 pM. Besides, the “IC50 anti-proliferative activity towards HUVEC” value in [2] (cell growth assay, Wakabayashi et al., 1997) is 0.006 µg/mL (≈ 0.0123 µM). Also, the “HUVEC anti-proliferative IC50 weaker than anti-angiogenesis activity” value in assay [2] (measured in the same medium) is given as 15 fold. Besides, the “anti-angiogenesis IC50 lower than IC50 for inhibition of protein synthesis” value in assay [3] (0.4 ng/mL versus 20 ng/mL) is listed as 50 fold. In addition, in assay [3] (cultured rat cells), the “IC50 inhibition of protein synthesis” value is 0.02 µg/mL. The “IC50 Cdc28/Cln2” value in assay [4] is 12 µg/mL (≈ 24.5 µM). Further, the “increment of vascular volume induced by WiDr cells” value in [5] is listed as “significantly reduce”. In the assay on B16-BL6 melanoma cells, the “inhibition of the formation of spontaneous lung metastases” value was “effective”. In assay [6], the “propagation of metastatic nodules after removal of the primary tumour” value is given as “weakly inhibited”.
